Reference: US10723998B2, “Application of ethyl p-methoxycinnamate and derivatives thereof in maintaining self-renewal and pluripotency of stem cells” (NORTHEAST NORMAL UNIVERSITY, priority 2015, dated 2020)

Experiments:
Oct4 protein = Oct4 protein expression by Western Blot in P19 cells; type: cell-based, mouse; conditions: 5 μg/mL, 24 h, DMSO control, FIG. 3
Experimental: The effect of ethyl p-methoxycinnamate on Oct4 protein expression was assayed using a Western Blot method. Mouse teratoma cells P19 were inoculated in a 6-well plate. After 24 h, ethyl p-methoxycinnamate with a final concentration of 5 μg/mL was added to continue to act for another 24 h, and the control group was treated with DMSO. After the cells were washed with PBS three times, the cells were scraped with a scraper, transferred to an EP tube, and centrifuged at 4000 rpm for 5 min. The supernatant was discarded. 90 μL of lysis solution (50 mM Tris-HCl pH 7.5, 150 mM NaCl, 1 mM NaF, 0.5% NP-40, 2 μg/mL Aprotinin, and 1 mM PMSF) was added to each tube of precipitate, and the EP tube was treated on ice for 30 min and vortexed once every 5 min, so that the cells were completely lysed. After centrifugation at 12000 rpm for 10 min, the supernatant was transferred to a new EP tube, 1/3 volume of 4× protein loading buffer was added, mixed well, and boiled for 10 min, and after instantaneous centrifugation, the mixture was subjected to electrophoresis or placed at −80° C. to be frozen for standby use.
A transfer membrane buffer was prepared and precooled at 4° C. A PVDF membrane was soaked in methanol for 40 s, then taken out and soaked in the transfer membrane buffer for standby use. […]

mouse teratoma cells P19 = assay: Formation of microspheres of adherently cultured stem cells; type: cell-based; conditions: 5 μg/mL, 3% fetal calf serum DMEM, 22 d, compared with control, FIG. 5
Experimental: In a super clean bench, mouse teratoma cells P19 were inoculated in a 6-well plate at a density of 1×10^4 cells/well, and DMEM culture medium containing 10% fetal calf serum was added to result in a final volume of 2 mL. The cell culture plate was gently shaken, so that the cells were uniformly distributed in the cell culture plate, and then placed in a cell incubator to be cultured. After 24 h, the old culture medium were discarded, and 3% fetal calf serum DMEM culture medium containing ethyl p-methoxycinnamate was added, so that the final concentration of ethyl p-methoxycinnamate was 5 μg/mL. The original culture medium was discarded every 24 h, and fresh DMEM culture medium containing 3% fetal calf serum was added, and the final concentration of ethyl p-methoxycinnamate therein was made to be 5 μg/mL likewise. After continuous culture of 22 d, the cells were photographed.

Oct4 mRNA = Oct4 mRNA expression by RT-PCR and agarose gel electrophoresis in P19 cells; type: cell-based, mouse; conditions: 5 μg/mL, 12 h, DMSO control, FIG. 2
Experimental: P19 cells were inoculated in a 6-well cell culture plate at a density of 2×10^5 cells/well. After 24 h, DMEM culture medium containing 3% serum were used for replacement. Ethyl p-methoxycinnamate was added to the experimental group to render its final concentration at 5 μg/mL, and a control group was treated with DMSO. After 12 h, the 6-well plate overgrown with monolayer cells was taken out from a cell incubator, and the cells were washed 3 times with pre-cooled PBS. 1 mL of a pre-cooled Trizol solution was added. After vigorous pipetting, the mixture was transferred to an EP tube and allowed to stand at room temperature for 5 min. Then 200 μL of chloroform was added to the mixture, vigorously mixed well for 15 s, and the mixture containing chloroform was allowed to stand at room temperature for 2 min and centrifuged at 12000 rpm at 4° C. for 15 min. An upper aqueous phase was pipetted into another EP tube, and an equal volume of pre-cooled isopropanol was added, and the mixture was inverted several times and allowed to stand at room temperature for 10 min to precipitate RNA. After centrifugation at 12000 rpm for 10 min, the supernatant was discarded, and to the precipitate was added 1 mL of 75% ethanol (prepared by 0.1% DEPC water) for washing, followed by centrifugation at 7500 rpm for 5 min (this step was repeated once). The supernatant was discarded. […]

SMILES: CCOC(=O)C=Cc1ccc(OC)cc1 [ethyl p-methoxycinnamate]
- effect on the expression of Oct4 protein (Oct4 protein): can promote the expression of Oct4 protein
- formation of microspheres of adherently cultured stem cells (mouse teratoma cells P19): the P19 cells can form typical microspheres
- effect on the expression of Oct4 mRNA (Oct4 mRNA): can significantly promote the expression of Oct4 mRNA
